Results as given in paper PMC8235661, “Photoelectric Dye, NK-5962, as a Potential Drug for Preventing Retinal Neurons from Apoptosis: Pharmacokinetic Studies Based on Review of the Evidence” (Life, 2021).
Read-outs that look alike come from different tables or passages of the source.

Columns and labels:
[1] = Hepatic microsomal stability assay, rat; assay type: in vitro ADME
Description: The disappearance of the parent compound over time was measured by using the amount of drug at time zero as a reference. After 5 min of preincubation, 1 mM NADPH (final concentration, the same applies to the following) was added to a mixture containing 1 μM of the test compound, 0.2 mg/mL of rat or human liver microsomes (Sekisui XenoTech, LLC, Kansas City, KS), 1 mM EDTA, and 100 mM phosphate buffer (pH 7.4) and then incubated at 37 °C for 30 min by rotation at 60 rpm. An aliquot of 50 μL of the incubation mixture was sampled and added to 250 μL of chilled acetonitrile/internal standard (IS). After the centrifugation for 15 min at 3150× g at 4 °C, the supernatants were analyzed by LC-MS/MS. Hepatic microsomal stability (mL/min/kg, CLint) was calculated according to the previous report and 44.8 or 48.8 mg microsomal protein/g liver and 40.0 or 25.7 g liver/kg body weight were used as scaling factors for the rat or human, respectively.

[2] = Eye ball concentration after intravitreous injection; assay type: in vivo, rat; conditions: intravitreous 16 µM (3 µL)
Description: (§1) The NK-5962 solutions at 16 μM concentration in phosphate-buffered saline and at 39.7 μM concentration in 0.5% methyl cellulose 400 solution (FUJIFILM Wako Chemicals, Osaka, Japan) were prepared as eye drops and topically applied to both eyes of two Wistar rats assigned for each concentration. The eyes were enucleated 30 min after topical application, washed twice in saline, weighed, and frozen for NK-5962 measurement. In parallel, 3 μL of the NK-5962 solution at 16 μM concentration in phosphate-buffered saline was injected into the vitreous of both eyes of 2 Wistar rats. The eyes in each rat were enucleated 5 min and 2 h after the intravitreous injection, washed twice in saline, weighed, and then frozen. Both eyes of one rat served as the negative control. This study was approved by the Animal Care and Use Committee at Okayama University (Identifier OKU-2016267, OKU-2019196).
Liquid chromatography and tandem mass spectrometry instrument (LC-MS8060) equipped with Shimadzu Nexera series LC system (Shimadzu, Kyoto, Japan) were used. All compounds were analyzed in multi-reaction monitoring mode under electron spray ionization conditions. The analytical column used was a […] C18 MGIII (3 μm × 2.0 mmID × 35 mm; OSAKA SODA, Osaka, Japan) at 50 °C. The gradient mobile phase consisted of 0.1% formic acid in water (mobile phase A) and 0.1% formic acid in acetonitrile (mobile phase B) at a total flow rate of 1 mL/minute. The initial mobile phase composition was 10% B, which was held constant for 0.2 min, increased in a linear fashion to 90% B over 1 min, then held constant for 0.8 min, and then finally brought back to the initial condition of 10% B over 0.01 min and re-equilibrated for 1 min. The transitions (precursor ion > product ion) of NK-5962 and IS (methyl testosterone) are 433.2 > 279.2 and 303.1 > 109.1 (positive), respectively.

Cytotoxicity test = assay type: cell-based
[3] = Eye ball concentration after topical application as eye drops; assay type: in vivo; conditions: Wistar, rat
Description: as §1
Liquid chromatography and tandem mass spectrometry instrument (LC-MS8060) equipped with Shimadzu Nexera series LC system (Shimadzu, Kyoto, Japan) were used. All compounds were analyzed in multi-reaction monitoring mode under electron spray ionization conditions. The analytical column used was a […] C18 MGIII (3 μm × 2.0 mmID × 35 mm; OSAKA SODA, Osaka, Japan) at 50 °C. […]

[4] = tested on: human chromosomal aberration; assay: Human chromosomal aberration test; assay type: cell-based

SMILES: CCCCN(CCCC)c1ccc(C=Cc2sc3ccccc3[n+]2CC(=O)O)cc1.[Br-] [NK-5962, 2-[2-[4-(dibutylamino)phenyl]ethenyl]-3-carboxymethylbenzothiazolium bromide]
- Microsome Metabolic Stability Rat ([1]; 1 μM, 0.2 mg/mL microsomes, 1 mM NADPH, 30 min): 151.9 µL/min/mg
- metabolic stability (in words) ([1]; rat liver microsomes): moderate metabolic stability
- stability in the absence of the coenzyme NADPH ([1]; rat liver microsomes, without NADPH): stable
- CLint scaled at 1 μM ([1]; rat, liver microsomes, pH 7.4, 1 μM, 0.2 mg/mL microsomes, 1 mM NADPH, 30 min, read-out: Microsome Metabolic Stability Rat (CLint)): 272 mL/min/kg
- concentration at 0.083 h ([2]; Wistar, rat, eye ball, other: intravitreous injection, 0.083 h (5 min), read-out: Mean Eye Ball Concentration): 7.25 nM
- concentration at 0.083 h ([2]; Wistar, rat, eye ball, other: intravitreous injection, 0.083 h, single eye, read-out: Eye Ball Concentration): 9.23 nM
- concentration at 2 h ([2]; Wistar, rat, eye ball, other: intravitreous injection, 2 h, single eye, read-out: Eye Ball Concentration): 1.19 nM
- concentration at 2 h ([2]; Wistar, rat, eye ball, other: intravitreous injection, 2 h, read-out: Mean Eye Ball Concentration): 1.49 nM
- concentration at 2 h ([2]; 0.083 h, single eye, read-out: Eye Ball Concentration): 5.27 nM
- concentration at 2 h ([2]; 2 h, single eye, read-out: Eye Ball Concentration): 1.78 nM
- toxicity in the cytotoxicity test (Cytotoxicity test): not toxic
- concentration at 0.5 h ([3]; topical eye drop 16 µM (10 µL)): 0.14 nM
- concentration at 0.5 h ([3]; topical eye drop 39.7 µM (10 µL)): 0.96 nM
- genetic toxicity, human chromosomal aberration test [4]: not toxic
